# ChEMBL document CHEMBL3044811, “Efficacy of grain protectants against four psocid species on maize, rice and wheat” (2009)
# Calls of active or inactive are those of the source. The rule behind the calls is not given here.
# Key:
# [1] = tested on: Liposcelis bostrychophila; assay: Insecticidal activity against Liposcelis bostrychophila (booklice) in compound pre-treated wheat grains assessed as effect on progeny production at 1.6 ppm after 30 days; format: functional, organism-based
# Liposcelis entomophila [2] = assay: Insecticidal activity against Liposcelis entomophila in compound pre-treated rice grains assessed as effect on progeny production at 2.2 ppm after 30 days; format: functional, organism-based
# [3] = tested on: Liposcelis bostrychophila; assay: Insecticidal activity against Liposcelis bostrychophila (booklice) in compound pre-treated wheat grains assessed as mortality at 1.6 ppm after 7 days (reference value: 3.3 +/-1.7%); format: functional
# Lepinotus reticulatus [4] = assay: Insecticidal activity against Lepinotus reticulatus in compound pre-treated wheat grains assessed as mortality at 1.6 ppm after 7 days (reference value: 10.0 +/-5.3%); format: functional
# Liposcelis paeta [5] = assay: Insecticidal activity against Liposcelis paeta in compound pre-treated maize grains assessed as mortality at 1.6 ppm after 14 days (reference value: 14.1 +/-4.1%); format: functional
# Liposcelis paeta [6] = assay: Insecticidal activity against Liposcelis paeta in compound pret-reated maize grains assessed as mortality at 1.6 ppm after 7 days (reference value: 13.3 +/-3.3%); format: functional; settings: 168 h
# Lepinotus reticulatus [7] = assay: Insecticidal activity against Lepinotus reticulatus in compound pre-treated maize grains assessed as mortality at 1.6 ppm after 7 days (reference value: 34.4 +/-11.4%); format: functional
# [8] = tested on: Liposcelis bostrychophila; assay: Insecticidal activity against Liposcelis bostrychophila (booklice) in compound pre-treated rice grains assessed as mortality at 2.2 ppm after 14 days (reference value: 9.7 +/-2.4%); format: functional
# Lepinotus reticulatus [9] = assay: Insecticidal activity against Lepinotus reticulatus in compound pre-treated wheat grains assessed as mortality at 1.6 ppm after 14 days (reference value: 21.1 +/-7.4%); format: functional
# Lepinotus reticulatus [10] = assay: Insecticidal activity against Lepinotus reticulatus in compound pre-treated wheat grains assessed as decrease in progeny production at 1.6 ppm after 30 days; format: functional, organism-based
# Liposcelis paeta [11] = assay: Insecticidal activity against Liposcelis paeta in compound pre-treated rice grains assessed as mortality at 2.2 ppm after 7 days (reference value: 3.3 +/-1.7%); format: functional
# Lepinotus reticulatus [12] = assay: Insecticidal activity against Lepinotus reticulatus in compound pre-treated maize grains assessed as mortality at 1.6 ppm after 14 days (reference value: 61.1 +/-11.9%); format: functional
# [13] = tested on: Liposcelis bostrychophila; assay: Insecticidal activity against Liposcelis bostrychophila (booklice) in compound pre-treated maize grains assessed as decrease in progeny production at 1.6 ppm after 30 days; format: functional, organism-based
# Liposcelis entomophila [14] = assay: Insecticidal activity against Liposcelis entomophila in compound pre-treated maize grains assessed as mortality at 1.6 ppm after 7 days (reference value: 15.6 +/-6.9%); format: functional
# Liposcelis entomophila [15] = assay: Insecticidal activity against Liposcelis entomophila in compound pre-treated maize grains assessed as mortality at 1.6 ppm after 14 days (reference value: 14.4 +/-4.1%); format: functional
# Lepinotus reticulatus [16] = assay: Insecticidal activity against Lepinotus reticulatus in compound pre-treated rice grains assessed as mortality at 2.2 ppm after 7 days (reference value: 6.8 +/-2.4%); format: functional
# [17] = tested on: Liposcelis bostrychophila; assay: Insecticidal activity against Liposcelis bostrychophila (booklice) in compound pre-treated wheat grains assessed as mortality at 1.6 ppm after 14 days (reference value: 6.8 +/-3.3%); format: functional
# Lepinotus reticulatus [18] = assay: Insecticidal activity against Lepinotus reticulatus in compound pre-treated maize grains assessed as decrease in progeny production at 1.6 ppm after 30 days; format: functional, organism-based
# [19] = tested on: Liposcelis bostrychophila; assay: Insecticidal activity against Liposcelis bostrychophila (booklice) in compound pre-treated rice grains assessed as effect on progeny production at 2.2 ppm after 30 days; format: functional, organism-based
# Liposcelis entomophila [20] = assay: Insecticidal activity against Liposcelis entomophila in compound pre-treated wheat grains assessed as decrease in progeny production at 1.6 ppm after 30 days; format: functional, organism-based
# Liposcelis entomophila [21] = assay: Insecticidal activity against Liposcelis entomophila in compound pre-treated rice grains assessed as mortality at 2.2 ppm after 14 days (reference value: 10.0 +/-4.7%); format: functional
# [22] = tested on: Liposcelis bostrychophila; assay: Insecticidal activity against Liposcelis bostrychophila (booklice) in compound pre-treated rice grains assessed as mortality at 2.2 ppm after 7 days (reference value: 8.9 +/-4.5%); format: functional
# Liposcelis paeta [23] = assay: Insecticidal activity against Liposcelis paeta in compound pre-treated wheat grains assessed as mortality at 1.6 ppm after 14 days (reference value: 5.6 +/-1.8%); format: functional
# Liposcelis entomophila [24] = assay: Insecticidal activity against Liposcelis entomophila in compound pre-treated wheat grains assessed as mortality at 1.6 ppm after 14 days (reference value: 13.3 +/-4.7%); format: functional
# [25] = tested on: Liposcelis bostrychophila; assay: Insecticidal activity against Liposcelis bostrychophila (booklice) in compound pre-treated maize grains assessed as mortality at 1.6 ppm after 7 days (reference value: 8.9 +/-2.6%); format: functional
# Liposcelis entomophila [26] = assay: Insecticidal activity against Liposcelis entomophila in compound pre-treated wheat grains assessed as mortality at 1.6 ppm after 7 days (reference value: 5.6 +/-2.9%); format: functional
# Lepinotus reticulatus [27] = assay: Insecticidal activity against Lepinotus reticulatus in compound pre-treated rice grains assessed as effect on progeny production at 2.2 ppm after 30 days; format: functional, organism-based
# Liposcelis entomophila [28] = assay: Insecticidal activity against Liposcelis entomophila in compound pre-treated maize grains assessed as decrease in progeny production at 1.6 ppm after 30 days; format: functional, organism-based
# [29] = tested on: Liposcelis bostrychophila; assay: Insecticidal activity against Liposcelis bostrychophila (booklice) in compound pre-treated maize grains assessed as mortality at 1.6 ppm after 14 days (reference value: 13.5 +/-5.3%); format: functional
# Liposcelis entomophila [30] = assay: Insecticidal activity against Liposcelis entomophila in compound pre-treated rice grains assessed as mortality at 2.2 ppm after 7 days (reference value: 3.3 +/-2.6%); format: functional
# Lepinotus reticulatus [31] = assay: Insecticidal activity against Lepinotus reticulatus in compound pre-treated rice grains assessed as mortality at 2.2 ppm after 14 days (reference value: 15.5 +/-4.1%); format: functional
# Liposcelis paeta [32] = assay: Insecticidal activity against Liposcelis paeta in compound pret-reated wheat grains assessed as mortality at 1.6 ppm after 7 days (reference value: 7.8 +/-3.2%); format: functional; settings: 168 h
# Liposcelis paeta [33] = assay: Insecticidal activity against Liposcelis paeta in compound pre-treated rice grains assessed as mortality at 2.2 ppm after 14 days (reference value: 3.4 +/-1.6%); format: functional
compound,measurement,setting,value
C=C/C=C\CC1=C(C)[C@@H](OC(=O)[C@@H]2[C@@H](/C=C(\C)C(=O)OC)C2(C)C)CC1=O [PYRETHRIN],inhibition,[1],inactive
same,inhibition,Liposcelis entomophila [2],inactive
same,mortality at 1.6 ppm,[3],17.8%
same,mortality at 1.6 ppm,Lepinotus reticulatus [4],41.1%
same,mortality at 1.6 ppm,Liposcelis paeta [5],18.9%
same,mortality at 1.6 ppm,Liposcelis paeta [6],10%
same,mortality at 1.6 ppm,Lepinotus reticulatus [7],57.8%
same,mortality at 2.2 ppm,[8],26.5%
same,mortality at 1.6 ppm,Lepinotus reticulatus [9],65.7%
same,inhibition,Lepinotus reticulatus [10],Active
same,mortality at 2.2 ppm,Liposcelis paeta [11],15.7%
same,mortality at 1.6 ppm,Lepinotus reticulatus [12],86.7%
same,inhibition,[13],Active
same,mortality at 1.6 ppm,Liposcelis entomophila [14],17.8%
same,mortality at 1.6 ppm,Liposcelis entomophila [15],60%
same,mortality at 2.2 ppm,Lepinotus reticulatus [16],23.4%
same,mortality at 1.6 ppm,[17],30%
same,inhibition,Lepinotus reticulatus [18],Active
same,inhibition,[19],inactive
same,inhibition,Liposcelis entomophila [20],Active
same,mortality at 2.2 ppm,Liposcelis entomophila [21],16.7%
same,mortality at 2.2 ppm,[22],23.3%
same,mortality at 1.6 ppm,Liposcelis paeta [23],14.4%
same,mortality at 1.6 ppm,Liposcelis entomophila [24],55.6%
same,mortality at 1.6 ppm,[25],18.9%
same,mortality at 1.6 ppm,Liposcelis entomophila [26],47.8%
same,inhibition,Lepinotus reticulatus [27],inactive
same,inhibition,Liposcelis entomophila [28],Active
same,mortality at 1.6 ppm,[29],23.3%
same,mortality at 2.2 ppm,Liposcelis entomophila [30],8.9%
same,mortality at 2.2 ppm,Lepinotus reticulatus [31],14.3%
same,mortality at 1.6 ppm,Liposcelis paeta [32],14.5%
same,mortality at 2.2 ppm,Liposcelis paeta [33],31.1%
